Source: patent US20250000852A1, “NITROXOLINE FOR USE IN THE TREATMENT OR PREVENTION OF A PLEXIFORM NEUROFIBROMA” (HEALX LTD, priority 2021, published 2025)

Tests used:
[1] = system: Postn-Cre+ Nf1fl/fl mouse model of plexiform neurofibroma; experiment: In vivo drug testing in Nf1-KO mice (plexiform neurofibroma model); details: oral gavage, 12 weeks
Excerpt: The aim of this study was to evaluate the effect of nitroxoline in a mouse model of neurofibromatosis type 1, more specifically a model that develops plexiform neurofibromas. This study is the same used by AstraZeneca for the approval of selumetinib for pNF.
This study uses the Postn-Cre+Nf1^fl/fl mouse model of plexiform neurofibroma. The neurofibromas that arise in these mice faithfully recapitulate human disease (Burks et al. 2019). At 4 months of age when mice (male and female) had established plexiform neurofibromas they were randomised into three treatment groups and administered nitroxoline at 120 mg/kg QD, 120 mg/kg BD or vehicle (10% DMSO in 90% corn oil) via oral gavage. Mice were treated for 12 weeks then sacrificed. Mice were perfused and fixed in 10% neutral buffered formalin.
The whole bodies were decalcified in 5% formic acid, the spinal proximal nerve tree was dissected, and nerve width (including the tumour formed along it) measured via calliper (shown in FIG. 3) across four nerves per mouse. Nerve volume was subsequently calculated using a spheroid calculation: 0.52×(width) 2 w length.
To quantify tumour number, the nerves were processed to paraffin blocks, sectioned, and stained for collagen using Masson's trichrome stain. Tumour number was scored from these slides by a clinician.
Graphs and statistical analysis of data were produced using GraphPad Prism (Ver 9).

[2] = system: WT (ipn02.3λ) immortalized human-derived Schwann cells; experiment: CellTiter-Glo cell proliferation assay, WT Schwann cells; format: cell-based; details: 48 hours incubation
Excerpt: (§1) In this study the efficacy of nitroxoline was investigated and its ability to reduce cellular proliferation, increase apoptosis, and overall cell viability utilizing immortalized wild-type (WT) and NF1 deficient (Nf1^−/−) Schwann cells (SCs). Nf1^−/− SCs have increased survival and proliferation in vitro, consistent with the in vivo phenotypes (Kim H A et al., Mol Cell Biol. 1997; 17 (2): 862-72). The present studies utilize WT (ipn02.3λ) and NF1^−/− (ipNF95.6) immortalized human-derived SC lines. The selectivity of nitroxoline was compared between NF1^−/− and WT cells.
(§2) Cells were treated with serially diluted nitroxoline starting from […] and incubated for 48 hours. After the incubation period, proliferation, viability, and apoptosis assays were performed as described below: • Cell proliferation was assessed using the CellTiter-Glo Assay (Promega) which measures ATP consumption. […] After 10 minutes, the plates were read using a 96-well microplate luminometer. • Cellular apoptosis was assessed using the Caspase-Glo 3/7 kit (Promega). […] After 10 minutes, plates were read using a 96 well luminometer and caspase 3/7 activity was measured.

[3] = system: NF1−/− (ipNF95.6) immortalized human-derived Schwann cells; experiment: CellTiter-Glo cell proliferation assay, NF1 deficient Schwann cells; format: cell-based; details: 48 hours incubation
Excerpt: as §1, §2

[4] = system: NF1−/− (ipNF95.6) immortalized human-derived Schwann cells; experiment: Caspase-Glo 3/7 apoptosis assay, NF1 deficient Schwann cells; format: cell-based
Excerpt: as §1, §2

[5] = system: WT (ipn02.3λ) immortalized human-derived Schwann cells; experiment: Caspase-Glo 3/7 apoptosis assay, WT Schwann cells; format: cell-based; details: 48 hours incubation, caspase 3/7 activity
Excerpt: as §1, §2

O=[N+]([O-])c1ccc(O)c2ncccc12 [Nitroxoline, 5-nitroquinolin-8-ol]
proximal nerve volume compared to vehicle treated control mice ([1]; 120 mg/kg BD): lower proximal nerve volumes | proximal nerve volume compared to vehicle treated control mice ([1]; 120 mg/kg QD): lower proximal nerve volumes | tumour number along the nerves compared to vehicle controls ([1]; nitroxoline treated mice (120 mg/kg QD or BD)): a reduction in tumour number | concentration at which antiproliferative effect was observed [2]: greater than 1 μM | concentration at which antiproliferative effect was observed [3]: greater than 1 μM | concentration at which induction of apoptosis was evident ([4]; Nf1−/− Schwann cells, 48 hours incubation, caspase 3/7 activity): greater than 3 UM | magnitude of the increase in apoptosis in Nf1−/− SC compared with WT SC ([4]; at concentrations greater than 10 μM, 48 hours): significantly greater | concentration at which induction of apoptosis was evident [5]: greater than 3 UM
